Source: patent EP1130016A1, “THIOCARBAMIC ACID DERIVATIVES” (HOKURIKU SEIYAKU CO., LTD., priority 1998, dated 2000)
≈ marks a conversion by molar mass, not a printed value. Like-named read-outs stand apart in the source and are kept apart here.

How the values were obtained:
MRSA HPC 1336 = test: Antibacterial activity (MIC), clinical isolates; format: cell-based, Methicillin-resistant Staphylococcus aureus; conditions: Staphylococcus aureus
Procedure: (§1) Antibacterial activities (minimum inhibitory concentration: MIC) were determined according to the standard method of the Japan Society of Chemotherapy [Chemotherapy, Vol. 29, p.76 (1981)] by using type strains and strains isolated from patients with infectious disease (including clinical isolates and atypical acid-fast bacteria), and applying 10^6/ml of colony forming bacteria. Linezolid was used as the reference compound [a compound described in Journal of Medicinal Chemistry, Vol. 39, p.673 (1996), hereinafter referred to as "reference compound"].

MRSA HPC 432 = test: Antibacterial activity (MIC), clinical isolates; format: cell-based, Methicillin-resistant Staphylococcus aureus; conditions: Staphylococcus aureus
Procedure: as §1

M.intracellulare 20073 = test: Antibacterial activity (MIC), atypical acid-fast bacteria; format: cell-based; conditions: Mycobacterium intracellulare, 10^6/ml of colony forming bacteria
Procedure: as §1

M.avium 20096 = test: as above; format: cell-based; conditions: Mycobacterium avium, 10^6/ml of colony forming bacteria
Procedure: as §1

M.avium 20092 = test: as above; format: cell-based; conditions: Mycobacterium avium, 10^6/ml of colony forming bacteria
Procedure: as §1

M.intracellulare 20067 = test: as above; format: cell-based; conditions: Mycobacterium intracellulare, 10^6/ml of colony forming bacteria
Procedure: as §1

S.aureus MS353 HPC017 = test: Antibacterial activity (MIC), type strains; format: cell-based; conditions: Staphylococcus aureus, MS353HPC017
Procedure: as §1

S.aureus Smith HPC023 = test: Antibacterial activity (MIC), type strains; format: cell-based; conditions: Staphylococcus aureus
Procedure: as §1

[1] = test system: B.subtilis ATCC 6633 HPR022; test: Antibacterial activity (MIC), type strains; format: cell-based; conditions: Bacillus subtilis, ATCC6633; type strain B.subtilis ATCC 6633 HPR022; 10^6/ml of colony forming bacteria
Procedure: as §1

S.epidermidis HPC 1728 = test: Antibacterial activity (MIC), clinical isolates; format: cell-based; conditions: Staphylococcus epidermidis, HPC1728
Procedure: as §1

E.faecium HPC 1322 = test: Antibacterial activity (MIC), clinical isolates; format: cell-based; conditions: Enterococcus faecium, HPC1322
Procedure: as §1

E.faecalis HPC 1321 = test: Antibacterial activity (MIC), clinical isolates; format: cell-based; conditions: Enterococcus faecalis, HPC1321
Procedure: as §1

[2] = clinical isolate MRSA HPC 1336, 10^6/ml of colony forming bacteria, read-out: MIC
[3] = clinical isolate MRSA HPC 432, 10^6/ml of colony forming bacteria, read-out: MIC
[4] = type strain S.aureus MS353 HPC017, 10^6/ml of colony forming bacteria, read-out: MIC
[5] = type strain S.aureus Smith HPC023, 10^6/ml of colony forming bacteria, read-out: MIC
[6] = clinical isolate S.epidermidis HPC 1728, 10^6/ml of colony forming bacteria, read-out: MIC
[7] = clinical isolate E.faecium HPC 1322, 10^6/ml of colony forming bacteria, read-out: MIC
[8] = clinical isolate E.faecalis HPC 1321, 10^6/ml of colony forming bacteria, read-out: MIC

Structure (SMILES)	MIC (MRSA HPC 1336; [2])	MIC (MRSA HPC 432; [3])	MIC (M.intracellulare 20073)	MIC (M.avium 20096)	MIC (M.avium 20092)	MIC (M.intracellulare 20067)	MIC (S.aureus MS353 HPC017; [4])	MIC (S.aureus Smith HPC023; [5])	MIC [1]	MIC (S.epidermidis HPC 1728; [6])	MIC (E.faecium HPC 1322; [7])	MIC (E.faecalis HPC 1321; [8])	MIC (MRSA HPC 1336; MRSA)	MIC (MRSA HPC 432; MRSA)	MIC (S.aureus MS353 HPC017)	MIC (S.aureus Smith HPC023)	MIC (S.epidermidis HPC 1728)	MIC (E.faecium HPC 1322)	MIC (E.faecalis HPC 1321)
COC(=S)NC[C@H]1CN(c2ccc(N3CCSCC3)c(F)c2)C(=O)O1 [Example 1, O-Methyl (S)-N-[3-[3-fluoro-4-(thiomorpholin-4-yl)phenyl]-2-oxooxazolidin-5-yl]methylthiocarbamate]	0.78 µg/mL (≈ 2.02 µM)	0.78 µg/mL (≈ 2.02 µM)	0.39 µg/mL (≈ 1.01 µM)	0.39 µg/mL (≈ 1.01 µM)	0.39 µg/mL (≈ 1.01 µM)	0.39 µg/mL (≈ 1.01 µM)	0.78 µg/mL (≈ 2.02 µM)	1.56 µg/mL (≈ 4.05 µM)	0.39 µg/mL (≈ 1.01 µM)	0.78 µg/mL (≈ 2.02 µM)	0.78 µg/mL (≈ 2.02 µM)	0.78 µg/mL (≈ 2.02 µM)	–	–	–	–	–	–	–
CC(=O)NC[C@H]1CN(c2ccc(N3CCOCC3)c(F)c2)C(=O)O1 [Reference compound, Linezolid, reference compound]	–	–	6.25 µg/mL (≈ 18.5 µM)	50 µg/mL (≈ 148 µM)	25 µg/mL (≈ 74.1 µM)	12.5 µg/mL (≈ 37.1 µM)	–	–	0.78 µg/mL (≈ 2.31 µM)	–	–	–	3.13 µg/mL (≈ 9.28 µM)	3.13 µg/mL (≈ 9.28 µM)	3.13 µg/mL (≈ 9.28 µM)	3.13 µg/mL (≈ 9.28 µM)	3.13 µg/mL (≈ 9.28 µM)	1.56 µg/mL (≈ 4.62 µM)	1.56 µg/mL (≈ 4.62 µM)

Continued, in another order:

MIC (MRSA HPC 1336; [2])	MIC (MRSA HPC 432; [3])	MIC (M.intracellulare 20073)	MIC (M.avium 20096)	MIC (M.avium 20092)	MIC (M.intracellulare 20067)	MIC (S.aureus MS353 HPC017; [4])	MIC (S.aureus Smith HPC023; [5])	MIC [1]	MIC (S.epidermidis HPC 1728; [6])	MIC (E.faecium HPC 1322; [7])	MIC (E.faecalis HPC 1321; [8])	Structure (SMILES)	MIC (MRSA HPC 1336; MRSA)	MIC (MRSA HPC 432; MRSA)	MIC (S.aureus MS353 HPC017)	MIC (S.aureus Smith HPC023)	MIC (S.epidermidis HPC 1728)	MIC (E.faecium HPC 1322)	MIC (E.faecalis HPC 1321)
0.78 µg/mL (≈ 1.94 µM)	0.78 µg/mL (≈ 1.94 µM)	6.25 µg/mL (≈ 15.6 µM)	3.13 µg/mL (≈ 7.8 µM)	3.13 µg/mL (≈ 7.8 µM)	6.25 µg/mL (≈ 15.6 µM)	0.78 µg/mL (≈ 1.94 µM)	0.78 µg/mL (≈ 1.94 µM)	0.39 µg/mL (≈ 0.971 µM)	0.78 µg/mL (≈ 1.94 µM)	0.39 µg/mL (≈ 0.971 µM)	0.39 µg/mL (≈ 0.971 µM)	COC(=S)NC[C@H]1CN(c2ccc(N3CC[S+]([O-])CC3)c(F)c2)C(=O)O1 [Example 2]	–	–	–	–	–	–	–
0.78 µg/mL (≈ 1.87 µM)	0.78 µg/mL (≈ 1.87 µM)	3.13 µg/mL (≈ 7.5 µM)	3.13 µg/mL (≈ 7.5 µM)	3.13 µg/mL (≈ 7.5 µM)	3.13 µg/mL (≈ 7.5 µM)	0.78 µg/mL (≈ 1.87 µM)	0.78 µg/mL (≈ 1.87 µM)	0.39 µg/mL (≈ 0.934 µM)	0.39 µg/mL (≈ 0.934 µM)	0.39 µg/mL (≈ 0.934 µM)	0.39 µg/mL (≈ 0.934 µM)	COC(=S)NC[C@H]1CN(c2ccc(N3CCS(=O)(=O)CC3)c(F)c2)C(=O)O1 [Example 3]	–	–	–	–	–	–	–
0.39 µg/mL (≈ 1.1 µM)	0.39 µg/mL (≈ 1.1 µM)	0.78 µg/mL (≈ 2.21 µM)	1.56 µg/mL (≈ 4.41 µM)	1.56 µg/mL (≈ 4.41 µM)	1.56 µg/mL (≈ 4.41 µM)	0.39 µg/mL (≈ 1.1 µM)	0.39 µg/mL (≈ 1.1 µM)	0.39 µg/mL (≈ 1.1 µM)	0.39 µg/mL (≈ 1.1 µM)	0.39 µg/mL (≈ 1.1 µM)	0.39 µg/mL (≈ 1.1 µM)	COC(=S)NC[C@H]1CN(c2ccc(N3CCCC3)c(F)c2)C(=O)O1 [Example 4]	–	–	–	–	–	–	–
